In ChEMBL document CHEMBL1201862, “PubChem BioAssay data set” (2004):
The source made the active and inactive calls.

Assays:
[1] = target: Delta-type opioid receptor (Homo sapiens, UniProt P41143); assay: Counterscreen for agonists of heterodimerization of the mu 1 (OPRM1) and delta 1 (OPRD1) opioid receptors: Luminescence-based cell-based high throughput dose response assay to identify agonists of OPRD1 homodimerization. [Related pubchem assays (depositor defined):AID504326, AID504355, AID504692, AID504904, AID504905]; assay type: functional
Mu-type opioid receptor = Mu-type opioid receptor (Homo sapiens, UniProt P35372); assay: Counterscreen for agonists of heterodimerization of the mu 1 (OPRM1) and delta 1 (OPRD1) opioid receptors: Luminescence-based cell-based high throughput dose response assay to identify agonists of OPRM1 homodimerization.; assay type: functional;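 further: U2OS cells expressing OPRM1 and beta-arrestin as split beta-galactosidase partners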
[2] = target: 5-hydroxytryptamine receptor 5A (Homo sapiens, UniProt P47898); assay: Counterscreen for agonists of OPRM1-OPRD1 heterodimerization: luminescence-based cell-based high throughput dose response assay to identify agonists of 5-hydroxytryptamine (serotonin) 5A receptor (HTR5A). [Related pubchem assays (depositor defined):AID504326, AID504355, AID504692, AID504904, AID504905]; assay type: functional
[3] = Vero E6 cell cytotoxicity, dose response, cytotoxicity control for non-replicating M. tuberculosis project, secondary assay (AID 492998); assay type: functional, VeroE6; conditions: Vero C1008
[4] = THP-1 cell cytotoxicity, dose response, cytotoxicity control for non-replicating M. tuberculosis project (AID 489025); assay type: functional
cells [5] = assay type: functional
Cytochrome P450 2D6 = Cytochrome P450 2D6 (Homo sapiens, UniProt P10635);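 further: CYP2D6 member of a cytochrome P450 panel assay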
Cytochrome P450 2C9 = Cytochrome P450 2C9 (Homo sapiens, UniProt P11712)
Cytochrome P450 3A4 = Cytochrome P450 3A4 (Homo sapiens, UniProt P08684);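 further: CYP3A4 tested as one member of a cytochrome P450 panel screen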
[6] = Counterscreen for activators of the function of SWI/SNF related, matrix associated, actin dependent regulator of chromatin, subfamily a, member 2 (SMARCA2, BRM): Luminescence-based cell-based high throughput dose response assay to identify non-selective compounds using the VP16 reporter assay.; assay type: functional
[7] = target: SWI/SNF-related matrix-associated actin-dependent regulator of chromatin subfamily A member 2 (Homo sapiens, UniProt P51531); assay: Luminescence-based cell-based high throughput dose response assay to identify activators of the function of SWI/SNF related, matrix associated, actin dependent regulator of chromatin, subfamily a, member 2 (SMARCA2, BRM).; assay type: functional
cells [8] = assay type: functional, cell-based
[9] = Counterscreen for AddAB inhibitors: absorbance-based bacterial cell-based high throughput dose response assay for inhibitors of bacterial viability. [Related pubchem assays (depositor defined):AID435030, AID449728, AID449731, AID488942, AID488955, AID488956]; assay type: functional
Exodeoxyribonuclease V = target: T1, Exodeoxyribonuclease V (Escherichia coli (strain K12), UniProt P04993+P07648+P08394); assay: E. coli RecBCD inhibitors, dose response, counter-screen for AddAB inhibitor project, absorbance, V66 E. coli, mutant T4 phage (AID 492957); assay type: functional, cell-based, Escherichia coli str. K-12 substr. MG1655
T1 sequence (P04993 whole entry): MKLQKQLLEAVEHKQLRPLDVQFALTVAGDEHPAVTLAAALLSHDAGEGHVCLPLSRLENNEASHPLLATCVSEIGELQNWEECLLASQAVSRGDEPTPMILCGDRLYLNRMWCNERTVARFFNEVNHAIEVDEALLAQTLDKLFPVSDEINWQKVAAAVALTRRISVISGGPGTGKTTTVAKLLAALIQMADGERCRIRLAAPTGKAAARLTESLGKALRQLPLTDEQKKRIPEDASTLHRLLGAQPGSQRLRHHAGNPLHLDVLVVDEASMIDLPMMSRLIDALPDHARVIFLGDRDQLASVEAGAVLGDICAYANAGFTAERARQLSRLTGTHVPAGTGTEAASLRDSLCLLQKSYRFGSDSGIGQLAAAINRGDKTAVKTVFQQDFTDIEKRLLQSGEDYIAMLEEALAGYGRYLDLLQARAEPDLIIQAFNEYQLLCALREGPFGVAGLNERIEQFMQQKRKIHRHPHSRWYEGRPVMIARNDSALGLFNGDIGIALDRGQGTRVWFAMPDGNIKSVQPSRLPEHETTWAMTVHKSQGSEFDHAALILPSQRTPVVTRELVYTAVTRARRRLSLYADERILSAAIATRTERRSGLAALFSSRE
T1 sequence (P07648 whole entry): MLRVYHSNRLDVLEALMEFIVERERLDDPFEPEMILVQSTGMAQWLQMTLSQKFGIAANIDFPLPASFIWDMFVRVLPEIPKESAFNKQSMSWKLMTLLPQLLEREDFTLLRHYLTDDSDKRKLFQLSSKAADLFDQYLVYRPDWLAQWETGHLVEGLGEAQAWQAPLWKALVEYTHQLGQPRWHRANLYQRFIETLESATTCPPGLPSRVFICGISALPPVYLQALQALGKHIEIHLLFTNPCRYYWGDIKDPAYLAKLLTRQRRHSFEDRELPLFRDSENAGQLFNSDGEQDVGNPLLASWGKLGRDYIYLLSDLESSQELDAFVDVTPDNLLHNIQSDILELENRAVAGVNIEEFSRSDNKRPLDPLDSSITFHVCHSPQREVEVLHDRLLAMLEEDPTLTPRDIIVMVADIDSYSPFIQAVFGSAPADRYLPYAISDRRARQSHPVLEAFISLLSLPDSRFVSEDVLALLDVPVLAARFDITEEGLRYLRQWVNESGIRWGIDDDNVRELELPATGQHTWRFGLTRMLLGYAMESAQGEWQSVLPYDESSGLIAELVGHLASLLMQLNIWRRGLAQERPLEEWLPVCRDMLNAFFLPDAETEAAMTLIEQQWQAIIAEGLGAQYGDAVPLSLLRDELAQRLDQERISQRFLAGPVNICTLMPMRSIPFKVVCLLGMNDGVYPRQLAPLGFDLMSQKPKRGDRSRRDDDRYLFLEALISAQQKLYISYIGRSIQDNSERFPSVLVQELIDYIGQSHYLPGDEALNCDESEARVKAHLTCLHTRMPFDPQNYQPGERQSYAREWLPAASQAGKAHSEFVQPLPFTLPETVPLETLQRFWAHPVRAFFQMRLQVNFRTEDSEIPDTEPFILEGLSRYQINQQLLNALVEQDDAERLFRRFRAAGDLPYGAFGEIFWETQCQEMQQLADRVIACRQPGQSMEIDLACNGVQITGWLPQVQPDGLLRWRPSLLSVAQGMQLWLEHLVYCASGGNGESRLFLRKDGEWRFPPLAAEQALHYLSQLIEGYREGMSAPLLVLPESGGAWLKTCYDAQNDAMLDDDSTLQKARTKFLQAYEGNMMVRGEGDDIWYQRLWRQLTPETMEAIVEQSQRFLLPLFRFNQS
T1 sequence (P08394 whole entry): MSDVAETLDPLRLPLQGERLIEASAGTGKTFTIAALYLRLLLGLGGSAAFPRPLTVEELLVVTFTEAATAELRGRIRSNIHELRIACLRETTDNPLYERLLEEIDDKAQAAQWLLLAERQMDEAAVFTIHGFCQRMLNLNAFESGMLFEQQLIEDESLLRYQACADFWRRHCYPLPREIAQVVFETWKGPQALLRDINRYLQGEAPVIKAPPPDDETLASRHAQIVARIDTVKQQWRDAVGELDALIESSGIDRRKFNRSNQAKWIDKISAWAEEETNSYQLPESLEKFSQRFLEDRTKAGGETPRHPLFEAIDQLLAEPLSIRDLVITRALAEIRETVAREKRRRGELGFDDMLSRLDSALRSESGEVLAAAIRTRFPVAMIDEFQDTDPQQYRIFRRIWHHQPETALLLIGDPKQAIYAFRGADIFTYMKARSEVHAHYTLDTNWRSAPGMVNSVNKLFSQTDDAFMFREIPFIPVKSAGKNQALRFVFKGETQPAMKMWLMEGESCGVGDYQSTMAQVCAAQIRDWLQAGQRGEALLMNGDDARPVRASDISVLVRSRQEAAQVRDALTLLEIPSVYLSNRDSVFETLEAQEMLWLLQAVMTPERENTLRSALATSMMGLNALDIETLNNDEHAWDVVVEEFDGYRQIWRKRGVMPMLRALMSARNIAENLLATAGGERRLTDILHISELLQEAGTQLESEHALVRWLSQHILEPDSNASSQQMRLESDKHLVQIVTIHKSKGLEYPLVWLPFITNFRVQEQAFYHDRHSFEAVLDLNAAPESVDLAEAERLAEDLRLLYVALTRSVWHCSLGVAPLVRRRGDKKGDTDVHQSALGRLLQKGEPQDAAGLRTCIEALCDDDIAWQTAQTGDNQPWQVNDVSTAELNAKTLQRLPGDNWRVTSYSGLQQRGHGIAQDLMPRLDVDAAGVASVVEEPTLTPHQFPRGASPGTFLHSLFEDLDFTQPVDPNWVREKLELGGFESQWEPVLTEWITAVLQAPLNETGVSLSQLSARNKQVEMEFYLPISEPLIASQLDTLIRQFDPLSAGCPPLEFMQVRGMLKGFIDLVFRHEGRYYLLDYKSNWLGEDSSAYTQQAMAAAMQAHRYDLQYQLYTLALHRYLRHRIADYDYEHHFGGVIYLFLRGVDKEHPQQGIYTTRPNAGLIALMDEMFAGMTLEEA

cells [10] = assay type: functional, cell-based; remark: listed apart in the source
[11] = cytotoxicity toward NIH3T3 fibroblasts, dose response, counter-screen, cell-based, ATP luminescence, mouse fibroblasts (AID 2010); assay type: functional;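 further: cells exposed to compound for about 90 hours before reading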
[12] = inhibitors of intracellular T. cruzi replication, confirmation, NIH3T3 host cells, beta-gal luminescence (AID 2044); assay type: functional, cell-based;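 further: intracellular parasites grown in NIH/3T3 mouse fibroblasts as host cells; luminescent beta-galactosidase reporter signal from transgenic T. cruzi replicating inside host cells; inhibitors lower the luminescence signal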
INS1 = assay: beta cell apoptosis inhibitors, cytokine rescue, dose response, luminescence, retest (AID 449756); assay type: functional, cell-based; conditions: Rattus norvegicus;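 further: cell death triggered by IL-1 beta plus TNF-alpha plus IFN-gamma mixture; protective hits raise ATP signal compared with cytokine alone wells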
HEK293 [13] = assay: cells; conditions: Homo sapiens
HEK293 [14] = assay: cells; conditions: Homo sapiens; remark: listed apart in the source
Cytochrome P450 2C19 = Cytochrome P450 2C19 (Homo sapiens, UniProt P33261); assay: Cytochrome panel assay with activity outcomes. Panel member name: p450-cyp2c19 Compounds with AC50 equal or less than 10 uM are considered active; assay type: functional; conditions: read-out: AC50
SUMO E1/E2 = SUMO E1/E2 (Homo sapiens, UniProt P63279+Q9UBE0+Q9UBT2); assay: SAR analysis of SUMOylation using HTRF in an in-Vitro dose response assay. [Related pubchem assays (depositor defined):AID2006, AID2011, AID2018, AID2069, AID2658]; assay type: functional
[15] = inhibitors of firefly luciferase expression or activity, dose response, H4 neuroglioma cells, luminescence (AID 1990); assay type: functional, cell-based
[16] = inhibitors of SNCA 5'UTR-driven reporter translation, confirmation, H4 neuroglioma cells, luminescence (AID 1988); assay type: functional, cell-based
[17] = Luminescence Cell-Based Dose Response HTS to Identify Inhibitors of 5'UTR Stem-Loop Driven Prion Protein mRNA Translation in H4 Neuroglioblastoma Cells. [Related pubchem assays: 1827 (Project Summary), 1813 (Primary HTS)]; assay type: functional

SUMO E1/E2, sequence (Q9UBE0 whole entry): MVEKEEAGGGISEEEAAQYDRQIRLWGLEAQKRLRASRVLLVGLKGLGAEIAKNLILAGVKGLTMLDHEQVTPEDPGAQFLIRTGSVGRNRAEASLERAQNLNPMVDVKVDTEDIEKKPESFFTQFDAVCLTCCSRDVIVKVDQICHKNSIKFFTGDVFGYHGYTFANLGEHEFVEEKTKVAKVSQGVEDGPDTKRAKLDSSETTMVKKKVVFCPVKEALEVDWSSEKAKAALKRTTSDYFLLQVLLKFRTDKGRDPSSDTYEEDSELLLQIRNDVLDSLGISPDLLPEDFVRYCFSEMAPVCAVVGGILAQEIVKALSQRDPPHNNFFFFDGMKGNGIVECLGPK
SUMO E1/E2, sequence (Q9UBT2 whole entry): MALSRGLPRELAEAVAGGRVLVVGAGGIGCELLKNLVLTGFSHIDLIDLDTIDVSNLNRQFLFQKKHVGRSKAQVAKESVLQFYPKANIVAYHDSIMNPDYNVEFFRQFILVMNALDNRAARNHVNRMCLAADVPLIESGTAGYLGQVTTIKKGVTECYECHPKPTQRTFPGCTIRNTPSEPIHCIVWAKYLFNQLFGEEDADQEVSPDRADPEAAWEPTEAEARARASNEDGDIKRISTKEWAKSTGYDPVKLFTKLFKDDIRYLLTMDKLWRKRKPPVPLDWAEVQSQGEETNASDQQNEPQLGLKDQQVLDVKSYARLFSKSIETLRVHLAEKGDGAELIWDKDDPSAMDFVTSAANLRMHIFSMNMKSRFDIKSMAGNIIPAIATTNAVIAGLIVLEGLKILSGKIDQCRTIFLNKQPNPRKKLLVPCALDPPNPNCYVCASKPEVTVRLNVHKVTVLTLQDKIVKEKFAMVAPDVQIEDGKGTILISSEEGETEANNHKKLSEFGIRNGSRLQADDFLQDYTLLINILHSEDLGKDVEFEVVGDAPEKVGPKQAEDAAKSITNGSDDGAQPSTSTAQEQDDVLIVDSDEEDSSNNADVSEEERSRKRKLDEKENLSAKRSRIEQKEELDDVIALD
SUMO E1/E2, sequence (P63279 whole entry): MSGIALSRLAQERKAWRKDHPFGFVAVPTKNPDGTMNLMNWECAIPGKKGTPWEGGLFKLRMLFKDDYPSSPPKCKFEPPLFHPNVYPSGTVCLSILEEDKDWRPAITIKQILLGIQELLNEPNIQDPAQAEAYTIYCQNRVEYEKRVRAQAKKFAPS
Cytochrome P450 2D6, sequence (P10635 whole entry): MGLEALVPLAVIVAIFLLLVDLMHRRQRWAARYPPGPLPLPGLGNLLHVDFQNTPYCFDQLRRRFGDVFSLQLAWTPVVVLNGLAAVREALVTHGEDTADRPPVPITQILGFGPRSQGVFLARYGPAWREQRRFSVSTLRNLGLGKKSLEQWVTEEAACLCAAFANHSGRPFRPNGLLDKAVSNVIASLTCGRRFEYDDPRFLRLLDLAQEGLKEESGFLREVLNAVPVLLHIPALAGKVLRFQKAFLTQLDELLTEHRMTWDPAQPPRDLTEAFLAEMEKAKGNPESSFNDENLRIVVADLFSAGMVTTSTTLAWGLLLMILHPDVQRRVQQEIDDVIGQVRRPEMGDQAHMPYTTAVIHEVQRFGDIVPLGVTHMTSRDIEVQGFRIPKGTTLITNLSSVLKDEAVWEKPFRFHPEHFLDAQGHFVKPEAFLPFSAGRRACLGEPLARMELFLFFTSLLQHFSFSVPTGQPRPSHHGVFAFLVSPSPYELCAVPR
Cytochrome P450 3A4, sequence (P08684 whole entry): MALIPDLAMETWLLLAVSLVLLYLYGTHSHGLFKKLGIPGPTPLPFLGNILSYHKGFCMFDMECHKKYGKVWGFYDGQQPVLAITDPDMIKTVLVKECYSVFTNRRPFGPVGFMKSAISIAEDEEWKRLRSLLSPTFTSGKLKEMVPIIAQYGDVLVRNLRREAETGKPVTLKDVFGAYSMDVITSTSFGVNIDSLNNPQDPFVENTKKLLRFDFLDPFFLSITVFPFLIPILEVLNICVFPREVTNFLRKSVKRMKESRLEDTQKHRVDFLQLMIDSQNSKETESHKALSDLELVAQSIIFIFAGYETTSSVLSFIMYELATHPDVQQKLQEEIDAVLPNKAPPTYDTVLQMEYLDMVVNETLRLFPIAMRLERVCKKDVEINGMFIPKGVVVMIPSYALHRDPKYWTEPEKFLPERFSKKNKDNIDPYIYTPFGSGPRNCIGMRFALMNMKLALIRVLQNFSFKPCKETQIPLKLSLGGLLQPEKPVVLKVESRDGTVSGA
Delta-type opioid receptor, sequence (P41143 whole entry): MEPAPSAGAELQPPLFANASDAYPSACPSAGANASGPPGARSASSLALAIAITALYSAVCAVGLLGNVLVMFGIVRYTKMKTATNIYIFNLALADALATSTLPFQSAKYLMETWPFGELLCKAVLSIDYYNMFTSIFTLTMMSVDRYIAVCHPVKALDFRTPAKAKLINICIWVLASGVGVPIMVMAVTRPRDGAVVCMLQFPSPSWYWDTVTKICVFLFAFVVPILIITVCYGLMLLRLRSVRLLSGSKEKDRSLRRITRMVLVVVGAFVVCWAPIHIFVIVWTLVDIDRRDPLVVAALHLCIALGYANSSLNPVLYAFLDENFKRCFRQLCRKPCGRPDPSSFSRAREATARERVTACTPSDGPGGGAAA
Cytochrome P450 2C9, sequence (P11712 whole entry): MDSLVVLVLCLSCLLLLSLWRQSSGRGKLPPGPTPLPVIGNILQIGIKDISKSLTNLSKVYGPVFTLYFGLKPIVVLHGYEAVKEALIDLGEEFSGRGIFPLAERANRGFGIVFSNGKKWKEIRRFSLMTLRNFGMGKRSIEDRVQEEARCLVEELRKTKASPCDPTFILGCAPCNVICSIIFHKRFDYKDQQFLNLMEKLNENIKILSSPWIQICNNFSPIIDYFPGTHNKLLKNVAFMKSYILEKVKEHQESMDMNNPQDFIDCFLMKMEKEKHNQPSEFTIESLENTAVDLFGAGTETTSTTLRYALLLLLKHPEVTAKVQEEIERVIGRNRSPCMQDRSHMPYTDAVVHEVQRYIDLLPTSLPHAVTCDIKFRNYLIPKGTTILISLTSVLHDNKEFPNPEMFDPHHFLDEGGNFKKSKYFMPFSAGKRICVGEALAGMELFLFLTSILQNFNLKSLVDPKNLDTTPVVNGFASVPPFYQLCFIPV
Cytochrome P450 2C19, sequence (P33261 whole entry): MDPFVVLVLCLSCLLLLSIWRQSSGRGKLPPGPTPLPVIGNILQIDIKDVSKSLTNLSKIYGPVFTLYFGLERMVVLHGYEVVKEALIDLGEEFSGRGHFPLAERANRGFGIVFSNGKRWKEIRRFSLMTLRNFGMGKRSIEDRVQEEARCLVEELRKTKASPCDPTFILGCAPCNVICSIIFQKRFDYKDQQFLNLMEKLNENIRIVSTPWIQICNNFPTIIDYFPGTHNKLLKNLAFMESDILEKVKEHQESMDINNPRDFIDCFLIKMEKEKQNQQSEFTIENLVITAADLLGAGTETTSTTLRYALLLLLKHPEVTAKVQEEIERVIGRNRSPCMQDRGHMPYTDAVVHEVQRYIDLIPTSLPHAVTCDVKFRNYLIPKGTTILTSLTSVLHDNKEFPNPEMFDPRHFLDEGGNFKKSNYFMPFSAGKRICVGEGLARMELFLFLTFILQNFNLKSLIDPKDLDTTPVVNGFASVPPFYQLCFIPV
Mu-type opioid receptor, sequence (P35372 whole entry): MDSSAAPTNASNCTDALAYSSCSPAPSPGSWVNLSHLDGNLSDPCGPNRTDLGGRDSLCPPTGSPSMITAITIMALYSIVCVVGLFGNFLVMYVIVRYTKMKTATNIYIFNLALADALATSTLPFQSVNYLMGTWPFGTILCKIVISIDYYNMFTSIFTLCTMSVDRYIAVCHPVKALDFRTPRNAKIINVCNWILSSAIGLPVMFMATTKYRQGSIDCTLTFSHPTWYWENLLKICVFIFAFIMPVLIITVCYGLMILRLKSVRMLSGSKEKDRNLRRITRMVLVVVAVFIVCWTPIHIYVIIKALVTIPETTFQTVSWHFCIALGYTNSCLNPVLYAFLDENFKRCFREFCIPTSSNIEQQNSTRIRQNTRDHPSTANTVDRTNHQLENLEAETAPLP
5-hydroxytryptamine receptor 5A, sequence (P47898 whole entry): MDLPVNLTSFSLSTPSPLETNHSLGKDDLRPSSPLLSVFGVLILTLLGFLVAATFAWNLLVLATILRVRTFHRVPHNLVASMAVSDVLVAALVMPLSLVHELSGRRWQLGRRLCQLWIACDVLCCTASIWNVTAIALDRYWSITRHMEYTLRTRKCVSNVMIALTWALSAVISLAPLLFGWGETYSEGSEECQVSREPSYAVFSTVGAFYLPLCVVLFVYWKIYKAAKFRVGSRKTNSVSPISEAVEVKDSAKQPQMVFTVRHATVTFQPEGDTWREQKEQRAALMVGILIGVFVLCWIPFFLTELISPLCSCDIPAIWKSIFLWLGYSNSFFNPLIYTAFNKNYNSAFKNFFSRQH

## CCNS(=O)(=O)c1ccc(NC(=O)Nc2ccc3c(c2)OCO3)cc1
[1]
  EC50: > 92.5 µM (inactive)
Mu-type opioid receptor
  EC50: 42.8 µM (inactive)
[2]
  EC50: > 92.5 µM (inactive)

## CC(C)CCCN1C(=O)NC(=O)/C(=C\c2ccc[nH]2)C1=O
[3]
  CC50: > 20 µM (active)
[4]
  CC50: > 40 µM (active)
Cells [5]
  IC50: 1.22 µM (active)

## CCOC(=O)c1c(C)c(C(=O)NCCN2CCOCC2)c(C)n1CC
Cytochrome P450 2D6
  AC50: inconclusive
Cytochrome P450 2C9
  AC50: inconclusive
Cytochrome P450 3A4
  AC50: 25.1 µM (inconclusive)

## CCS(=O)(=O)c1c([N+](=O)[O-])ncn1C
[6]
  EC50: > 91.1 µM (inactive)
[3]
  CC50: > 20 µM (active)
[7]
  EC50: > 91.1 µM (inactive)
[4]
  CC50: > 40 µM (active)
Cells [5]
  IC50: 16.2 µM (active)

## Cc1cc(N/N=C/c2ccc(O)cc2O)nc(-c2ccccc2O)n1
Cells [8]
  EC50: > 350 µM (not active)
[9]
  IC50: > 119 µM (inactive)
Exodeoxyribonuclease V
  IC50: > 119 µM (inactive)
Cells [10]
  EC50: 8.62 µM (active)
[11]
  EC50: 4.8 µM (active)
[12]
  EC50: 1.16 µM (active)
INS1
  AC50: 0.734 µM (active)

## CN(C)C(=S)N=c1ssc(=S)n1Cc1ccco1
HEK293 [13]
  EC50: > 59.6 µM (inactive)
HEK293 [14]
  EC50: > 59.6 µM (inactive)

## NC(=O)/C(=N\O)c1ccccc1
Cytochrome P450 2D6
  AC50: inconclusive
Cytochrome P450 2C19
  AC50: 0.00562 µM (inconclusive)

## O=C(NC(NC(=S)Nc1ccc(Cl)cc1)C(Cl)(Cl)Cl)c1ccco1 (centres undefined)
[9]
  IC50: > 119 µM (inactive)
Exodeoxyribonuclease V
  IC50: > 119 µM (inactive)

## Cc1c(Br)c([N+](=O)[O-])nn1C(C)C(=O)NCc1ccco1 (centres undefined)
[9]
  IC50: > 119 µM (inactive)
Exodeoxyribonuclease V
  IC50: > 119 µM (inactive)

## Cc1ccc(C=Nc2ccccc2C(N)=O)s1
SUMO E1/E2
  IC50: 22.2 µM (active)

## CC(=O)Nc1nc2ccccc2n1CCOc1ccccc1Cl
Cells [8]
  EC50: > 350 µM (not active)
[15]
  EC50: 16.7 µM (active)
[3]
  CC50: 17.5 µM (active)
Cells [10]
  EC50: 56.5 µM (active)
[4]
  CC50: > 40 µM (active)
[16]
  EC50: > 120 µM (not active)
[17]
  EC50: > 120 µM (not active)
Cells [5]
  IC50: 2.72 µM (active)

## Fc1ccc(C2Nc3ccccc3C3C=CCC32)cc1 (centres undefined)
SUMO E1/E2
  IC50: > 100 µM (inactive)
